Data set [1] deals with S. cerevisiae strain expressing the 0560 (An06g00560) transporter. As to the kind of experiment: toxic effect of pentose on yeast growth, strain expressing 0560 transporter. Also: key: ++++: very good growth; +++: good growth; ++: poor growth; +: very poor growth; +/−: growth barely visible; −: no growth. The following applies: 50 mM maltose, YNB + 2% agar + 0.5 mM CuSO4. It counts as cell-based, Saccharomyces cerevisiae. Here is the method: (§1) Yeast strain EB.VW4000 was grown on YP [1% (w/v) Bacto yeast extract/2% (w/v) Bacto peptone]with 2% (w/v) maltose at 30° C. (ref strain). Other S. cerevisiae strains used were derived from strain EB.VW4000, and were transformed with plasmids based on pYEX-BX (Clontech). Plasmid transformations of yeast cells were carried out according to the quick and easy TRAFO protocol [TRAFO reference]. Yeast strains were grown at 30° C. in a rotary shaker at 250 rev./min, in YNB[0.67% (w/v) Difco yeast nitrogen base] supplemented with 0.1% (w/v) casamino acids and 0.2 mg/l tryptophan, 20 mg/l leucine, 20 mg/l histidine, 122 mg/l uridine. The carbon sources used were as stated in the text. Unless stated otherwise, 0.5 mM CuSO4 was used to induce expression from the CUP1 promoter.
(§2) Yeast strains provided with an exemplary novel pentose transporter were studied with respect to the effect of growth in the presence of pentose sugars.

The test system of data set [2] is S. cerevisiae strain expressing the 1100 (An11g01100) transporter. Put plainly: toxic effect of pentose on yeast growth, strain expressing 1100 transporter. Also: key: ++++: very good growth; +++: good growth; ++: poor growth; +: very poor growth; +/−: growth barely visible; −: no growth. The following applies: 50 mM maltose, YNB + 2% agar + 0.5 mM CuSO4. It counts as cell-based, Saccharomyces cerevisiae. Here is the method:
as §1, §2

In data set [3] the test system is Aspergillus niger pentose transporter protein An03g01620 (1620), FIG. 3A. Put plainly: zero trans-influx sugar transport assay (14C-labelled pentose uptake, transporter expressed in S. cerevisiae). It is filed as biochemical. The text has this:
(§3) Cells were kept on ice until required.

For data set [4], the system named is Aspergillus niger pentose transporter protein An08g01720 (1720), FIG. 4A. The description is as above. It counts as biochemical.
Description: as §3

In data set [5] the test system is Aspergillus niger pentose transporter protein An06g00560 (0560), FIG. 1A. The description is as above. It is filed as biochemical. The following applies: read-out: Km for L-arabinose, 5 s, 30° C., pH 6.5.
Description: as §3

Substrate in data set [6]: OC1OC[C@H](O)[C@H](O)[C@H]1O
As to the kind of experiment: cells, lysate or membranes. The following applies: other: zero trans-influx, 5 s, 30° C., pH 6.5.

Substrate in data set [7]: OC1OC[C@@H](O)[C@H](O)[C@H]1O
As to the kind of experiment: cells, lysate or membranes. The following applies: other: zero trans-influx, 5 s, 30° C., pH 6.5.

Where two headings read alike, the source gives them in different places.

With `OC1OC[C@@H](O)[C@H](O)[C@H]1O` (stereo partly drawn) [D-xylose], the growth entry is recorded as “+++” in data set [1] (25 mM pentose); “++” in data set [1] (50 mM pentose); “++” in data set [1] (100 mM pentose); “++” in data set [1] (500 mM pentose); “++” in data set [2] (25 mM pentose); “+” in data set [2] (50 mM pentose). In addition, the growth entry in data set [2] (100 mM pentose) and in data set [2] (500 mM pentose) was “+” in each case. Further, the Km in data set [3] (read-out: Km for D-xylose, 5 s, 30° C., pH 6.5) came to 23 mM.

`OC1OC[C@H](O)[C@H](O)[C@H]1O` (stereo partly drawn) [L-arabinose]: the growth entry is recorded as “+” in data set [1] (25 mM pentose); “+/−” in data set [1] (50 mM pentose); “+/−” in data set [1] (100 mM pentose); “−” in data set [1] (500 mM pentose); “+++” in data set [2] (25 mM pentose); “++” in data set [2] (50 mM pentose). Besides, the growth result is “+” in data set [2] (100 mM pentose) and “+/−” in data set [2] (500 mM pentose). Further, the “higher affinity for L-arabinose than An06g00560” value in data set [4] (Km 4.9 mM compared to 75 mM) is on record as “approximately 15 fold”. Also, the Km came out at 4.9 mM in data set [4] (read-out: Km for L-arabinose, zero trans-influx, 5 s, 30° C., pH 6.5); 75 mM in data set [5]; 7.5 mM in data set [3] (read-out: Km for L-arabinose, 5 s, 30° C., pH 6.5).

B1: Aspergillus niger pentose transporter protein An03g02190 (2190), FIG. 8A (Aspergillus niger CBS 513.88) (protein)
chain: MPRKRPQDELNGDVLQQEAQATGPNDQKSEEGIVDTPIPLLTWRSFLMGIFVSMGGFLFGYDTGQISGFLEMPNFLQRYGQQQADGTYYFSNARSGLIVALLSIGTLIGALIAAPIADRVGRKWSISGWSAMVCVGITIQISSPFGKWYQVAMGRWVAGLGVGALSLLVPMYQAETGPRHIRGSLVSTYQLFITLGIFVANCINFGTEARNDTGSWRIPMGITYIWAMILGFGIALFPESARYDYRHGREAKAARTLSRMYGIPENHRMLKLEIGEIRQKFVEEQERGEITWSHLLHAPRMKYRVAVGVALQALQQLTGANYFFYYGTTIFRGAGISNSYVTQMILGGVNFGTTFLGLYLIENYGRRRSLITGALWMFVCFMVFASVGHFSLDHENPERTHTAGVVMVVFACLFILGFASTWGPMVWTIIAELYPSEFRARAMSLATASNWLWNFLLAFFTPFITSAIDFRLGYVFAGCLFLAAGLVYVAVIEGRGRTLEEIDTMYVMKVPPWKSSKYVFPDIDPYDRRGSILSKAGASHIPQVSGGNETLSPHTTEV
As for B1, the Km in data set [6] came out at 2.6 mM mM; in data set [7], 9 mM mM.

For the origin of these results see patent US20120295321A1, “Pentose Transporters and Uses Thereof” (Universiteit Utrecht Holding B.V., priority 2009, published 2012).
